Experimental data taken from ChEMBL document CHEMBL1201862, “PubChem BioAssay data set” (2004).
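Dose response: 5 concentrations. Exposure: 48 h. Format: 96-well plates. Endpoint: linear interpolation; highest concentration if not reached. GI50 is the concentration that inhibits growth by half.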 Active and inactive are the calls of the source. No stated cut-off is given here; in the data, active = GI50 up to about 1.1 µM and inactive = higher.

Key:
Experiment in all cases: growth of human tumour cells (NCI), 48 h
NCI-H226 = test system: NCI-H226
U-251 = test system: U-251
Malme-3M = test system: Malme-3M
A498 = test system: A498
NCI-H460 = test system: NCI-H460
DLD-1 = test system: DLD-1
SN12C = test system: SN12C
A549 = test system: A549
HT-29 = test system: HT-29
NCI/ADR-RES = test system: NCI/ADR-RES
SK-MEL-5 = test system: SK-MEL-5
SF-268 = test system: SF-268
NCI-H522 = test system: NCI-H522
HOP-18 = test system: HOP-18
UACC-257 = test system: UACC-257
HCT-15 = test system: HCT-15
PC-3 = test system: PC-3
CAKI-1 = test system: CAKI-1
ACHN = test system: ACHN
MDA-MB-231 = test system: MDA-MB-231

Measured: GI50

O=C1C=C(C2OC(CO)C(O)C2O)C(=O)N1 (stereo not given)
inactive: NCI-H226 > 100 µM | U-251 > 100 µM | Malme-3M > 100 µM | A498 > 100 µM | NCI-H460 > 100 µM | DLD-1 > 85.3 µM | SN12C > 100 µM | A549 > 100 µM | HT-29 > 100 µM | NCI/ADR-RES > 100 µM | SK-MEL-5 > 100 µM | SF-268 > 100 µM | NCI-H522 19.8 µM | HOP-18 > 100 µM | UACC-257 > 100 µM
> 74.5 µM: HCT-15

CCOC(=O)c1csc(NC(=O)CCN2CCCC2)n1
> 100 µM: HCT-15
inactive: NCI-H226 > 100 µM | U-251 > 100 µM | PC-3 > 100 µM | NCI-H460 > 100 µM | A549 > 100 µM | HT-29 > 100 µM | NCI/ADR-RES > 100 µM | SK-MEL-5 > 100 µM | CAKI-1 > 100 µM | ACHN > 100 µM | MDA-MB-231 > 100 µM | UACC-257 > 100 µM

CC(=O)OCc1nnn2c1CCC2
> 100 µM: HCT-15
inactive: U-251 > 100 µM | Malme-3M > 100 µM | NCI-H460 > 100 µM | DLD-1 > 100 µM | SN12C > 100 µM | A549 > 100 µM | HT-29 > 100 µM | SK-MEL-5 > 100 µM | ACHN > 100 µM | NCI-H522 > 100 µM | HOP-18 > 100 µM | UACC-257 > 100 µM

C/C(=N\Oc1cc(Cl)ncn1)c1ccccn1
inactive: NCI-H226 > 100 µM | U-251 60.5 µM | Malme-3M 61.9 µM | PC-3 45.3 µM | NCI-H460 25.3 µM | SN12C > 100 µM | A549 86.7 µM | HT-29 95.7 µM | NCI/ADR-RES > 100 µM | SK-MEL-5 28.1 µM | SF-268 58.2 µM | CAKI-1 18.7 µM | ACHN 90.6 µM | NCI-H522 17.9 µM | MDA-MB-231 19.8 µM | UACC-257 99.8 µM

COc1ccc(-c2cc3[nH]nc(N)c3c(=O)o2)cc1
> 100 µM: HCT-15
inactive: U-251 89.9 µM | Malme-3M > 100 µM | A498 76.9 µM | NCI-H460 > 100 µM | DLD-1 > 100 µM | SN12C > 100 µM | A549 > 100 µM | HT-29 > 100 µM | SK-MEL-5 > 100 µM | SF-268 81.3 µM | CAKI-1 73.6 µM | ACHN > 100 µM | HOP-18 > 100 µM | UACC-257 > 100 µM

COc1ccc(CN2C(=O)C(=O)N(C)C2=O)c2ccccc12
inactive: NCI-H226 > 10 µM | U-251 > 10 µM | Malme-3M > 10 µM | A498 > 10 µM | PC-3 > 10 µM | NCI-H460 > 10 µM | SN12C > 10 µM | A549 > 10 µM | HT-29 > 10 µM | NCI/ADR-RES > 10 µM | SK-MEL-5 > 10 µM | SF-268 > 10 µM | CAKI-1 > 10 µM | ACHN > 10 µM | NCI-H522 9.68 µM | MDA-MB-231 > 10 µM
> 10 µM: HCT-15
